Measured values as given in the NIST ThermoML archive (doi:10.1016/j.jct.2015.02.023).
± gives the expanded uncertainty stated by the source.

Assays:
[1] = activity coefficient (dimensionless); of the first substance listed, at infinite dilution; xn = mol fraction of the nth substance listed; settings: 101.33 kPa, Liquid, Chromatography, x1 = 0
[2] = 101.33 kPa, Liquid, Vibrating tube method

Row | Structure (SMILES) | activity coefficient ([1]; 313.15 K) | activity coefficient ([1]; 323.15 K) | activity coefficient ([1]; 333.15 K) | activity coefficient ([1]; 343.15 K) | activity coefficient ([1]; 353.15 K) | activity coefficient ([1]; 373.15 K) | also measured
1 | CCCCCCCCC [nonane] + CO[PH](=O)[O-].Cn1cc[n+](C)c1 | 1070 ± 74 | 1050 ± 72 | – | – | – | – | –
2 | c1ccccc1 [benzene] + CO[PH](=O)[O-].Cn1cc[n+](C)c1 | 5.69 ± 0.39 | 5.58 ± 0.38 | 5.52 ± 0.38 | 5.43 ± 0.37 | – | – | –
3 | CC1CCCC1 [methylcyclopentane] + CCn1cc[n+](C)c1.CO[PH](=O)[O-] | 76 ± 5 | – | – | – | – | – | –
4 | CC#N [acetonitrile] + CO[PH](=O)[O-].Cn1cc[n+](C)c1 | 1.1 ± 0.07 | 1.11 ± 0.07 | 1.12 ± 0.07 | 1.12 ± 0.07 | – | – | –
5 | CCCCCCCC [octane] + CCn1cc[n+](C)c1.CO[PH](=O)[O-] | 461 ± 32 | – | – | – | – | – | –
6 | CCO [ethanol] + CO[PH](=O)[O-].Cn1cc[n+](C)c1 | – | – | – | 0.16 ± 0.03 | – | – | –
7 | CCCCCCCCCCCCC [tridecane] + CCn1cc[n+](C)c1.CO[PH](=O)[O-] | 2560 ± 180 | – | 2130 ± 150 | – | 1850 ± 130 | 1300 ± 89 | –
8 | CCN(CC)CC [triethylamine] + CO[PH](=O)[O-].Cn1cc[n+](C)c1 | 9.04 ± 0.62 | 12.7 ± 0.9 | – | – | – | – | –
9 | ClCCl [dichloromethane] + CO[PH](=O)[O-].Cn1cc[n+](C)c1 | 0.57 ± 0.04 | 0.65 ± 0.04 | 0.72 ± 0.05 | 0.77 ± 0.05 | – | – | –
10 | CCC(=O)CC [pentan-3-one] + CO[PH](=O)[O-].Cn1cc[n+](C)c1 | 10.2 ± 0.7 | 10.1 ± 0.7 | 10.1 ± 0.7 | 10 ± 0.7 | – | – | –
11 | CCCCCCCCCCCC [dodecane] + CO[PH](=O)[O-].Cn1cc[n+](C)c1 | 2350 ± 160 | 1920 ± 130 | 1790 ± 120 | – | – | – | –
12 | C#CCCCC [1-hexyne] + CO[PH](=O)[O-].Cn1cc[n+](C)c1 | 12.7 ± 0.87 | 13 ± 0.88 | 13.4 ± 0.91 | 13.7 ± 0.93 | – | – | –
13 | CC(C)O [propan-2-ol] + CCn1cc[n+](C)c1.CO[PH](=O)[O-] | – | – | 0.261 ± 0.03 | – | 0.294 ± 0.031 | 0.314 ± 0.031 | –
14 | Cc1ccc(C)cc1 [1,4-dimethylbenzene] + CCn1cc[n+](C)c1.CO[PH](=O)[O-] | 16.9 ± 1.2 | – | 18 ± 1.2 | – | 19.3 ± 1.3 | 21.9 ± 1.5 | –
15 | CO [methanol] + CCn1cc[n+](C)c1.CO[PH](=O)[O-] | – | – | 0.072 ± 0.03 | – | 0.078 ± 0.03 | 0.088 ± 0.03 | –
16 | CCC(=O)CC [pentan-3-one] + CCn1cc[n+](C)c1.CO[PH](=O)[O-] | 5.77 ± 0.39 | – | 5.88 ± 0.4 | – | 6 ± 0.41 | 6.17 ± 0.42 | –
17 | CCn1cc[n+](C)c1.CO[PH](=O)[O-] [1-ethyl-3-methylimidazolium methyl phosphonate] | – | – | – | – | – | – | mass density ([2]; 293.15 K): 1190.6 ± 1.6 kg/m3; mass density ([2]; 303.15 K): 1184.1 ± 1.6 kg/m3; mass density ([2]; 313.15 K): 1180.1 ± 1.6 kg/m3; mass density ([2]; 323.15 K): 1174 ± 1.6 kg/m3; mass density ([2]; 333.15 K): 1168.7 ± 1.6 kg/m3; mass density ([2]; 343.15 K): 1163.2 ± 1.5 kg/m3
18 | CO[PH](=O)[O-].Cn1cc[n+](C)c1 [1,3-dimethylimidazolium methyl phosphonate] | – | – | – | – | – | – | mass density ([2]; 293.15 K): 1252.5 ± 1.8 kg/m3; mass density ([2]; 303.15 K): 1246.4 ± 1.8 kg/m3; mass density ([2]; 313.15 K): 1241.7 ± 1.8 kg/m3; mass density ([2]; 323.15 K): 1233.4 ± 1.8 kg/m3; mass density ([2]; 333.15 K): 1227.2 ± 1.7 kg/m3; mass density ([2]; 343.15 K): 1220.8 ± 1.7 kg/m3
19 | CCC[N+](=O)[O-] [1-nitropropane] + CCn1cc[n+](C)c1.CO[PH](=O)[O-] | 2.68 ± 0.18 | – | 2.69 ± 0.18 | – | 2.75 ± 0.19 | 2.8 ± 0.19 | –
20 | c1ccncc1 [pyridine] + CCn1cc[n+](C)c1.CO[PH](=O)[O-] | 1.77 ± 0.12 | – | 1.84 ± 0.12 | – | 1.95 ± 0.13 | 2 ± 0.14 | –
21 | CCCO [propan-1-ol] + CO[PH](=O)[O-].Cn1cc[n+](C)c1 | – | – | – | 0.25 ± 0.03 | – | – | –
22 | CCOCC [diethyl ether] + CCn1cc[n+](C)c1.CO[PH](=O)[O-] | 1.99 ± 0.14 | – | 2.43 ± 0.17 | – | 3.5 ± 0.24 | 4.6 ± 0.31 | –
23 | c1ccccc1 [benzene] + CCn1cc[n+](C)c1.CO[PH](=O)[O-] | 3.44 ± 0.23 | – | 3.52 ± 0.24 | – | 3.61 ± 0.25 | 3.75 ± 0.26 | –
